Laboratory results taken from paper PMC9594040, “Structure-Based Discovery of Negative Allosteric Modulators of the Metabotropic Glutamate Receptor 5” (ACS Chemical Biology, 2022).
Like-named read-outs stand apart in the source and are kept apart here.

Legend:
human mGlu5 [1] = molecular target: T1, human mGlu5 (Homo sapiens, UniProt P41594); experiment: IP1 functional assay, quisqualate-stimulated HEK293 cells expressing mGlu5; type: cell-based; set-up: expressed in transfected cells; host or cells: HEK293 cells, transient electroporation; glutamate transporter EAAC1 co-transfected; conditions: for functional activity in IP1 assay: agonist (quisqualate)-induced mGlu5-dependent IP1 production
T1 sequence (P41594 21-1212): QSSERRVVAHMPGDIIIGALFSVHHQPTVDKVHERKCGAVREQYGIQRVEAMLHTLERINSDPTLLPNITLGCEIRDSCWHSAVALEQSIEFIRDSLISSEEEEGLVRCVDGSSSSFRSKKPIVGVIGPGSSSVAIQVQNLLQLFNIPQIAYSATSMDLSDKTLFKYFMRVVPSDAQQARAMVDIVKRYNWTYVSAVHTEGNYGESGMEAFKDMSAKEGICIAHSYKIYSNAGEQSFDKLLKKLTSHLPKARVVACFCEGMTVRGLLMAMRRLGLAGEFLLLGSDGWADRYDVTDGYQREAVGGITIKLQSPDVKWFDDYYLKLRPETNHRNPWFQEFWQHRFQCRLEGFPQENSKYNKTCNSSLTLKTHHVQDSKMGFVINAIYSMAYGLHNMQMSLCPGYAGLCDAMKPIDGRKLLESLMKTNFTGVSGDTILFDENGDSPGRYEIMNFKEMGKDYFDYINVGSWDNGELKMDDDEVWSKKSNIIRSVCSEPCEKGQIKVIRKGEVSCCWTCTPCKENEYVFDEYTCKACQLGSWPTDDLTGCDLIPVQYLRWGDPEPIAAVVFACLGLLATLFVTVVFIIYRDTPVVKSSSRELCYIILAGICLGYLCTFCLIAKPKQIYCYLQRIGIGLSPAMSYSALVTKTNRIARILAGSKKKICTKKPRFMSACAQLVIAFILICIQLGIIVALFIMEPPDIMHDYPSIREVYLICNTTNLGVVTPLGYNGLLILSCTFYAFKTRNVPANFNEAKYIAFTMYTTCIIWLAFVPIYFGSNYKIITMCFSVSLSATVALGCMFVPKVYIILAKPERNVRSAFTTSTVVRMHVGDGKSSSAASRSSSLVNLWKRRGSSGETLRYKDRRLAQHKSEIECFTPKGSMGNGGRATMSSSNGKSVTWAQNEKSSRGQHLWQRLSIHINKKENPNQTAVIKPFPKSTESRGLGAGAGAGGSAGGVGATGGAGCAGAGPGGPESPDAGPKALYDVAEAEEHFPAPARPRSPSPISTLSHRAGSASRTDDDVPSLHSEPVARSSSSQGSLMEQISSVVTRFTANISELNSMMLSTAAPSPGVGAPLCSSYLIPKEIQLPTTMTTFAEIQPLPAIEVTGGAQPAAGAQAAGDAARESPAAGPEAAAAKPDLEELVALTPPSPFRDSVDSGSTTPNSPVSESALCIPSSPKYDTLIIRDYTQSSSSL
Experimental: Figure 3 Evaluation of compounds F1 and F2 in functional assays. Representative dose–response curve of compounds (a) F1 and (b) F2 in an IP1 functional assay. […] Each point was performed in triplicate and is shown as a mean ± SEM of 3–5 independent experiments.
HEK293 cells were cultured in Dulbecco’s modified Eagle’s medium (DMEM) supplemented with 10% fetal bovine serum (FBS) and were maintained at 37 °C in a humidified atmosphere with 5% CO2. Transient transfection was performed using electroporation in a volume of […] with […] of plasmid encoding SNAP-tag human mGlu5, […] plasmid encoding for the glutamate transporter EAAC1 plasmids, and 10 million of HEK293 cells in electroporation buffer (50 mM K2HPO4, 20 mM CH3COOK, and 20 mM KOH, pH 7.4). After electroporation (250 V, 0.5 mF, Bio–Rad Gene Pulser electroporator; Bio-Rad Laboratories, Hercules, CA), cells were resuspended in 10 mL of DMEM supplemented with 10% FBS and seeded for 24 h into black, clear-bottom 96-well culture plates (Greiner Bio-one), pretreated with Poly-L-Ornithine 1X, at a density of 100,000 cells per well. Following 24 h of transfection, HEK293 cells were incubated for 2 h with glutamate-free DMEM GlutaMAX-I (Life Technologies). The IP1 accumulation assay kit (Cisbio Bioassays, PerkinElmer) was used for the direct quantitative measurement of IP1. Cells were stimulated by quisqualate at EC80 alone and with various concentrations of allosteric compounds, incubated for 30 min at 37 °C, 5% CO2. Cells were then lysed using the conjugate-lysis buffer mixed with the d2-labeled IP1 analogue and the Lumi4-terbium cryptate-labeled anti-IP1 antibody according to the manufacturer’s instructions. After a 1 h incubation at room temperature, the HTRF measurement was performed after excitation at 337 nm with 50 μs delay. Terbium cryptate fluorescence and tr-FRET signals were measured at 620 and 665 nm, respectively, using a PheraStar fluorimeter (BMG Labtech).

human mGlu5 [2] = molecular target: T1, human mGlu5; experiment: Radioligand displacement assay (radiolabeled MPEP) on membranes of HEK293 cells stably expressing mGlu5; conditions: Ki
Experimental: Treated cells were harvested with PBS/2 mM EDTA and washed three times with ice-cold PBS and frozen at −80 °C. The frozen cell pellet was resuspended in membrane buffer (25 mM Tris/7.4, 250 mM sucrose, 2.5 mM EDTA, 2 ug/ml aprotinin, 0.5 ug/ml leupeptin and 200 nM PMSF) and homogenized with a polytron 20–30 s at maximum power. After centrifugation at 18,000 RPM for 30 min at 4 °C, the pellet was resuspended in ice-cold membrane buffer, hand-homogenized, and centrifuged as described above. This pellet was further resuspended in ice-cold membrane buffer. The protein content was measured using the Bradford method with bovine serum albumin as the standard. The membrane homogenate was frozen at −80 °C before use. After thawing, the membranes were washed once and resuspended in ice-cold 50 mM Tris–HCl, 0.9% NaCl, pH 7.4 buffer. All incubations were performed at room temperature. For the displacement binding experiments, 15 μg of membranes were incubated with 5 nM the radioligand in the presence of 10 varying concentrations of the test compound for 2 h at room temperature with shaking. At the end of the respective incubations, the suspension was filtered onto PerkinElmer GF/C glass fiber filters (1450–421) pre-soaked in 0.5% polyethyleneimine and washed rapidly four times using a Tomtec Harvester 96 Mach III cell harvester (Tomtec, Hamden, CT) with 5 mL of cold wash buffer (50 mM Tris–HCl, pH 7.4). The radioactivity trapped on the filters was measured after heat sealing the filters with MeltiLexTM A (PerkinElmer, 1450–441) in a 1450 MicroBeta TriLux counter (PerkinElmer). […] IC50 values were derived from the inhibition curve, and Ki values were calculated according to the Cheng-Prusoff equation of Ki = IC50/(1 + [L]/Kd),[61] where [L] is the concentration of radioligand and Kd is its dissociation constant at the receptor, derived from the saturation isotherm.

[3] = quisqualate 50 nM, mean ± SEM of 3–5 independent experiments, read-out: pIC50 (converted)
[4] = radioligand displacement, mean ± SEM of two experiments
[5] = analogues of F1, read-out: IC50

Compound | functional activity in IP1 assay (human mGlu5 [1]) | IC50 (human mGlu5 [1]; [3]) [µM] | Ki (human mGlu5 [2]; [4]) [µM] | Ki (human mGlu5 [2]; resynthesized pure sample of F2, new binding assays) [µM] | IC50 (human mGlu5 [1]; [5]) [µM]
COc1cccc(CNc2cccc(C#N)c2)c1 [F1] | acted as NAMs | 6.31 | 0.43 ± 0.01 | – | –
COCc1cccc(/C=C/c2cccc(C)n2)c1 [F2] | acted as NAMs | 7.94 | 0.92 ± 0.12 | 0.55 | –
N#Cc1cccc(NCc2ccccc2)c1 [FA1] | inactive | – | – | – | > 100
COc1cccc(CNc2ccccc2)c1 [FA2] | inactive | – | – | – | > 100
Cc1cnn(CC2CCCCN2C(=O)c2cc(-c3ccco3)on2)c1 (stereo not drawn) [L1] | negatively modulated | – | 0.99 ± 0.15 | – | –
Cn1c(SCc2noc(-c3ccoc3)n2)nnc1-c1ccco1 [L2] | negatively modulated | – | 1.1 ± 0.1 | – | –
